Assay [1] concerns Candida albicans. Description: Fungistatic activity against Candida albicans NRRLY 477 after 24 hrs by two-fold serial dilution assay. The format is functional. The note with it: NRRLY 477, 24 h.
Assay [2] has as its system Saccharomyces cerevisiae. As to the kind of experiment: Fungistatic activity against Saccharomyces cerevisiae after 24 hrs by two-fold serial dilution assay. The format is functional.
Assay [3] concerns Candida albicans. As to the kind of experiment: Antifungal activity against Candida albicans NRRLY 477 assessed as growth inhibition at 0.5 mg/mL after 24 hrs by agar well diffusion assay. The format is functional. The settings on record: NRRLY 477, 24 h, read-out: DIZ.
Assay [4] relates to Saccharomyces cerevisiae. Description: Antifungal activity against Saccharomyces cerevisiae assessed as growth inhibition at 0.5 mg/mL after 24 hrs by agar well diffusion assay. Format: functional. The settings on record: read-out: DIZ.
Assay [5] concerns Proteus vulgaris. As to the kind of experiment: Bacteriostatic activity against Proteus vulgaris after 24 hrs by two-fold serial dilution assay. Format: functional.
For assay [6], the system named is Micrococcus luteus. As to the kind of experiment: Bacteriostatic activity against Sarcina luteus after 24 hrs by two-fold serial dilution assay. The format is functional.
Assay [7] relates to Escherichia coli. Description: Bacteriostatic activity against Escherichia coli ATCC 25922 after 24 hrs by two-fold serial dilution assay. The format is functional. The note with it: ATCC 25922, 24 h.
Assay [8] has as its system Klebsiella pneumoniae. Description: Bacteriostatic activity against Klebsiella pneumoniae ATCC 13883 after 24 hrs by two-fold serial dilution assay. The settings on record: ATCC 13883, 24 h. The format is functional.
The subject of assay [9] is Priestia megaterium. As to the kind of experiment: Bacteriostatic activity against Bacillus megaterium ATCC 9885 after 24 hrs by two-fold serial dilution assay. Format: functional. The settings on record: ATCC 9885, 24 h.
Assay [10] concerns Bacillus spizizenii. Description: Bacteriostatic activity against Bacillus subtilis ATCC 6633 after 24 hrs by two-fold serial dilution assay. The format is functional. The note with it: ATCC 6633, 24 h.
Assay [11] has as its system Micrococcus luteus. As to the kind of experiment: Antibacterial activity against Sarcina luteus assessed as growth inhibition at 0.5 mg/mL after 24 hrs by agar well diffusion assay. The format is functional. The note with it: read-out: DIZ.
The subject of assay [12] is Proteus vulgaris. As to the kind of experiment: Antibacterial activity against Proteus vulgaris assessed as growth inhibition at 0.5 mg/mL after 24 hrs by agar well diffusion assay. Format: functional. The settings on record: read-out: DIZ. Background: Agar diffusion results depend on both activity and mobility in agar.
In assay [13] the test system is Priestia megaterium. As to the kind of experiment: Antibacterial activity against Bacillus megaterium ATCC 9885 assessed as growth inhibition at 0.5 mg/mL after 24 hrs by agar well diffusion assay. Format: functional. The note with it: ATCC 9885, 24 h, read-out: DIZ.
In assay [14] the test system is Bacillus spizizenii. Description: Antibacterial activity against Bacillus subtilis ATCC 6633 assessed as growth inhibition at 0.5 mg/mL after 24 hrs by agar well diffusion assay. The format is functional. The note with it: ATCC 6633, 24 h, read-out: DIZ.
In assay [15] the test system is Pseudomonas aeruginosa. As to the kind of experiment: microbe, parasite or virus in culture. The note with it: ATCC 27953, 24 h, read-out: DIZ.
Description: Antibacterial activity against Pseudomonas aeruginosa ATCC 27953 assessed as growth inhibition at 0.5 mg/mL after 24 hrs by agar well diffusion assay
Assay [16] concerns Klebsiella pneumoniae. Description: microbe, parasite or virus in culture. The settings on record: ATCC 13883, 24 h, read-out: DIZ.
Description: Antibacterial activity against Klebsiella pneumoniae ATCC 13883 assessed as growth inhibition at 0.5 mg/mL after 24 hrs by agar well diffusion assay
Assay [17] has as its system Staphylococcus aureus. Description: microbe, parasite or virus in culture. The settings on record: ATCC 29213, 24 h, read-out: DIZ.
Description: Antibacterial activity against Staphylococcus aureus ATCC 29213 assessed as growth inhibition at 0.5 mg/mL after 24 hrs by agar well diffusion assay
Assay [18] concerns Proteus vulgaris. As to the kind of experiment: Potency index, ratio of ciprofloxacin MIC to compound MIC for Proteus vulgaris. Format: functional.
Assay [19] concerns Micrococcus luteus. Description: Potency index, ratio of ciprofloxacin MIC to compound MIC for Sarcina luteus. The format is functional.
For assay [20], the system named is Klebsiella pneumoniae. As to the kind of experiment: Potency index, ratio of ciprofloxacin MIC to compound MIC for Klebsiella pneumoniae ATCC 13883. Format: functional.
The test system of assay [21] is Escherichia coli. As to the kind of experiment: Potency index, ratio of ciprofloxacin MIC to compound MIC for Escherichia coli ATCC 25922. Format: functional.
The test system of assay [22] is Pseudomonas aeruginosa. As to the kind of experiment: Potency index, ratio of ciprofloxacin MIC to compound MIC for Pseudomonas aeruginosa ATCC 27953. The format is functional.
Assay [23] relates to Pseudomonas aeruginosa. Description: Bacteriostatic activity against Pseudomonas aeruginosa ATCC 27953 after 24 hrs by two-fold serial dilution assay. The format is functional. The note with it: ATCC 27953, 24 h.
Assay [24] deals with Staphylococcus aureus. As to the kind of experiment: Bacteriostatic activity against Staphylococcus aureus ATCC 29213 after 24 hrs by two-fold serial dilution assay. The settings on record: ATCC 29213, 24 h. Format: functional.
The subject of assay [25] is Candida albicans. As to the kind of experiment: Antifungal activity against Candida albicans NRRLY 477 assessed as growth inhibition at 1 mg/mL after 24 hrs by agar well diffusion assay. Format: functional. The note with it: NRRLY 477, 24 h, read-out: DIZ.
The subject of assay [26] is Saccharomyces cerevisiae. Description: Antifungal activity against Saccharomyces cerevisiae assessed as growth inhibition at 1 mg/mL after 24 hrs by agar well diffusion assay. The format is functional. The settings on record: read-out: DIZ.
Assay [27] deals with Proteus vulgaris. Description: Antibacterial activity against Proteus vulgaris assessed as growth inhibition at 1 mg/mL after 24 hrs by agar well diffusion assay. The format is functional. The note with it: read-out: DIZ.
The subject of assay [28] is Micrococcus luteus. Description: Antibacterial activity against Sarcina luteus assessed as growth inhibition at 1 mg/mL after 24 hrs by agar well diffusion assay. Format: functional. The note with it: read-out: DIZ.
Assay [29] has as its system Escherichia coli. Description: Antibacterial activity against Escherichia coli ATCC 25922 assessed as growth inhibition at 1 mg/mL after 24 hrs by agar well diffusion assay. The format is functional. The settings on record: ATCC 25922, 24 h, read-out: DIZ.
Assay [30] relates to Pseudomonas aeruginosa. As to the kind of experiment: Antibacterial activity against Pseudomonas aeruginosa ATCC 27953 assessed as growth inhibition at 1 mg/mL after 24 hrs by agar well diffusion assay. The format is functional. The settings on record: ATCC 27953, 24 h, read-out: DIZ.
Assay [31] has as its system Klebsiella pneumoniae. Description: Antibacterial activity against Klebsiella pneumoniae ATCC 13883 assessed as growth inhibition at 1 mg/mL after 24 hrs by agar well diffusion assay. The format is functional. The note with it: ATCC 13883, 24 h, read-out: DIZ.
Assay [32] has as its system Priestia megaterium. As to the kind of experiment: Antibacterial activity against Bacillus megaterium ATCC 9885 assessed as growth inhibition at 1 mg/mL after 24 hrs by agar well diffusion assay. The settings on record: ATCC 9885, 24 h, read-out: DIZ. The format is functional.
Assay [33] deals with Bacillus spizizenii. As to the kind of experiment: Antibacterial activity against Bacillus subtilis ATCC 6633 assessed as growth inhibition at 1 mg/mL after 24 hrs by agar well diffusion assay. The format is functional. The settings on record: ATCC 6633, 24 h, read-out: DIZ.
Assay [34] has as its system Staphylococcus aureus. Description: Antibacterial activity against Staphylococcus aureus ATCC 29213 assessed as growth inhibition at 1 mg/mL after 24 hrs by agar well diffusion assay. The format is functional. The settings on record: ATCC 29213, 24 h, read-out: DIZ.

Values after ≈ are worked out from the molar mass of the structure shown.

What is called MIC is the lowest concentration that inhibits growth of the organism. Lower therefore signals greater potency. In the case of `CC(=O)N1CCN(c2ccc(OCC3COC(Cn4ccnc4)(c4ccc(Cl)cc4Cl)O3)cc2)CC1` (configuration not stated) [KETOCONAZOLE], the MIC turned out to be 6.25 µg/mL (≈ 11.8 µM) against Candida albicans [1] and 3.12 µg/mL (≈ 5.87 µM) in the assay with Saccharomyces cerevisiae [2]. In addition, the figures for the zone of inhibition at 500 µg/mL with Candida albicans [3] and in the assay with Saccharomyces cerevisiae [4] were 22 mm and 23 mm, respectively.

`O=C(O)c1cn(C2CC2)c2cc(N3CCNCC3)c(F)cc2c1=O` [CIPROFLOXACIN]: the MIC against Proteus vulgaris [5] is 12.5 µg/mL (≈ 37.7 µM); against Micrococcus luteus [6] it was 12.5 µg/mL (≈ 37.7 µM); against Escherichia coli [7] it was 12.5 µg/mL (≈ 37.7 µM); against Klebsiella pneumoniae [8], 12.5 µg/mL (≈ 37.7 µM); against Priestia megaterium [9], 6.25 µg/mL (≈ 18.9 µM); in the assay on Bacillus spizizenii [10], 6.25 µg/mL (≈ 18.9 µM). Also, the zone of inhibition at 500 µg/mL in the assay with Micrococcus luteus [11] is 20 mm; with Proteus vulgaris [12], 23 mm; with Priestia megaterium [13] it was 24 mm; with Bacillus spizizenii [14], 22 mm; in the assay on Pseudomonas aeruginosa [15], 24 mm; in the assay on Klebsiella pneumoniae [16], 25 mm. Further, the zone of inhibition at 500 µg/mL in the assay on Staphylococcus aureus [17] stood at 20 mm.

As for `O=C(O)CNC(=O)c1ccc(NC(=S)N/N=C2/CCc3ccccc32)cc1`, the PI in the assay on Proteus vulgaris [18], with Micrococcus luteus [19], with Klebsiella pneumoniae [20], in the assay on Escherichia coli [21] and in the assay with Pseudomonas aeruginosa [22] was 2 throughout. The MIC was determined as 12.5 µg/mL (≈ 32.7 µM) with Candida albicans [1]; 50 µg/mL (≈ 131 µM) in the assay with Saccharomyces cerevisiae [2]; 12.5 µg/mL (≈ 32.7 µM) against Proteus vulgaris [5]; 12.5 µg/mL (≈ 32.7 µM) in the assay on Micrococcus luteus [6]; 12.5 µg/mL (≈ 32.7 µM) against Escherichia coli [7]; 6.25 µg/mL (≈ 16.3 µM) in the assay with Pseudomonas aeruginosa [23]. The minimum inhibitory concentration (MIC) against Klebsiella pneumoniae [8] worked out at 12.5 µg/mL (≈ 32.7 µM); with Priestia megaterium [9], 50 µg/mL (≈ 131 µM); against Bacillus spizizenii [10], 25 µg/mL (≈ 65.4 µM); against Staphylococcus aureus [24], 6.25 µg/mL (≈ 16.3 µM). The zone of inhibition at 1000 µg/mL in the assay with Candida albicans [25] came out at 20 mm; in the assay on Saccharomyces cerevisiae [26] it was 20 mm; in the assay on Proteus vulgaris [27], 20 mm; in the assay with Micrococcus luteus [28] it was 25 mm; with Escherichia coli [29], 25 mm; with Pseudomonas aeruginosa [30] it was 28 mm. The zone of inhibition at 1000 µg/mL with Klebsiella pneumoniae [31] worked out at 28 mm; with Priestia megaterium [32], 18 mm; in the assay with Bacillus spizizenii [33] it was 18 mm; with Staphylococcus aureus [34], 28 mm.

The values are drawn from ChEMBL document CHEMBL2417483, “Synthesis of thiosemicarbazones derived from N-(4-hippuric acid)thiosemicarbazide and different carbonyl compounds as antimicrobial agents” (2013).
